# pIC50: −log10 of the molar value.
# Assays:
# human Nav1.7 = human Nav1.7 (Homo sapiens (Human), UniProt Q15858); assay: FRET-based membrane potential assay, recombinant human sodium channel Nav1.7; type: cell-based; details: HEK293 cells stably expressing recombinant human Nav1.7; depolarization with veratridine (EC80) + scorpion venom
# Procedure, shortened: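 IC50 derived by four-parameter Hill fit of percent inhibition of depolarization, measured as peak F440-480/F565-625 ratio over baseline. Stable human Nav1.7 HEK293 cells, dye-loaded with CC2-DMPE and DiSBAC2(3)/VABSC-1 at room temperature, received compound 3 min ahead of veratridine (EC80) plus scorpion venom.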
# human Nav1.8 = human Nav1.8 (Homo sapiens (Human), UniProt Q9Y5Y9); assay: FRET-based membrane potential assay, recombinant human sodium channel Nav1.8; type: cell-based; details: HEK293 cells stably expressing recombinant human Nav1.8; depolarization with veratridine (EC80) + scorpion venom
# Chain of human Nav1.8 (Q9Y5Y9 whole entry): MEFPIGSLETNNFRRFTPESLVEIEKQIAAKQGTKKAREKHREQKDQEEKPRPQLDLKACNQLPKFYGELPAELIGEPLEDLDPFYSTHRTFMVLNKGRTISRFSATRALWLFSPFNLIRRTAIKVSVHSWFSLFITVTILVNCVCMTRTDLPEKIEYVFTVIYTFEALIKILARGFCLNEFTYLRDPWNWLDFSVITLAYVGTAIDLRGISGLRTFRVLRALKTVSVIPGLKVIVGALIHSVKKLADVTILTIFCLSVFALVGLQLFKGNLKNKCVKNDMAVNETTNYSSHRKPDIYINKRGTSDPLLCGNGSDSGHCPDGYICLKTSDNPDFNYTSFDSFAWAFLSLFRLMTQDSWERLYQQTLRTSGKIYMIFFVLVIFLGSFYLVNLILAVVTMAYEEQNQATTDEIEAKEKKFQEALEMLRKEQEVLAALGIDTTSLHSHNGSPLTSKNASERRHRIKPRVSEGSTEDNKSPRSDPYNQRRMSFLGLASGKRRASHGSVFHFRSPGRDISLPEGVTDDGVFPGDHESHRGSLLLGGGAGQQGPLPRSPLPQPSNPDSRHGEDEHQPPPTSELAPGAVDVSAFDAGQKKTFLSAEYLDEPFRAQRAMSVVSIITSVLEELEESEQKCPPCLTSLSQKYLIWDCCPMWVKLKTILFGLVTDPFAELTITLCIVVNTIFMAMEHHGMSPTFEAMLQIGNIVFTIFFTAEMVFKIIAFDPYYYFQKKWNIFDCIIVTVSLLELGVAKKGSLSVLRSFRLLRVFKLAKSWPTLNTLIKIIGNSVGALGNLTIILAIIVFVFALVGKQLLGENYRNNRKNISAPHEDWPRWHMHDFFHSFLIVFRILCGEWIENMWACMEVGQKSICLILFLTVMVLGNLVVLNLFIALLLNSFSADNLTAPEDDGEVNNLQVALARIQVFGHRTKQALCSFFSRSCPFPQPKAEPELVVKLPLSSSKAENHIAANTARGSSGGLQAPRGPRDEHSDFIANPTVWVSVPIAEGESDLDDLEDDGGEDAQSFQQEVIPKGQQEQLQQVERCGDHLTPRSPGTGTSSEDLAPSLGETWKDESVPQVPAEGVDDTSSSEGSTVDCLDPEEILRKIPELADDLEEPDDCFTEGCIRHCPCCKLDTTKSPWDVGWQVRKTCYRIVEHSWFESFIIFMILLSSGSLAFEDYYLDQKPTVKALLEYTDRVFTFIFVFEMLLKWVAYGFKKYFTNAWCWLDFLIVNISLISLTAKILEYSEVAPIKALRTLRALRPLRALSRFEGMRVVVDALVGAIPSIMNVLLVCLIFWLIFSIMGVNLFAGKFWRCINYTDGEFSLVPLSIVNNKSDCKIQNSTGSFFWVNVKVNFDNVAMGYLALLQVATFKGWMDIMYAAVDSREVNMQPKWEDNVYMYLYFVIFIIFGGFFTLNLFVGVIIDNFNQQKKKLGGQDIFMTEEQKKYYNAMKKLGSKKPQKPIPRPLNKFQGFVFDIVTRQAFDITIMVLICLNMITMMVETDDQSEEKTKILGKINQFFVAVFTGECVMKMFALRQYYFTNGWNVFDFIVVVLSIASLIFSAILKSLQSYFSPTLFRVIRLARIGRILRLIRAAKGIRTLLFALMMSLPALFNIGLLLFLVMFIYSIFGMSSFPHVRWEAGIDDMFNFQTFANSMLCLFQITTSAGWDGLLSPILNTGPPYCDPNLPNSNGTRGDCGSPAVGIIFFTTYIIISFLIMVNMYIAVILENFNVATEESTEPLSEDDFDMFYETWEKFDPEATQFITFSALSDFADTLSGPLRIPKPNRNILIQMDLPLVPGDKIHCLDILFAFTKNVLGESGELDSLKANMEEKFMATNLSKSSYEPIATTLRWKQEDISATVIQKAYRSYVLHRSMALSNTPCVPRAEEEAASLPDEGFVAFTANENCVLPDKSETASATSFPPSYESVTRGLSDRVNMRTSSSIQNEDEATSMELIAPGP
# Method: FRET-Based Membrane Potential Assays.
# Recombinant, Human Sodium Channel, Nav1.8.
# Two days prior to the experiment, frozen HEK293 cells stably expressing recombinant human Nav1.8 (Essen, Ann Arbor, Mich.) were quickly thawed and plated at 22,500 cells/well in growth medium [MEM (Invitrogen #11095) with 10% FBS (Invitrogen #10082), 1 mM sodium pyruvate (Invitrogen, #C11360), 10 units/mL penicillin/10 U/mL streptomycin/29.2 μg/mL glutamine ((PSG 1%, Invitrogen #10378), 400 μg/mL zeocin (Invitrogen #R250) in black-walled, clear-bottom 384-well poly-D-lysine-coated assay plates (Greiner Bio-One, Frickenhausen, Germany) and incubated in a humidified 5% CO2 incubator at 37° C. On the day of the assay, medium was removed by aspiration, and cells were washed with assay buffer [HBSS (Invitrogen, Carlsbad, Calif.) containing 20 mM HEPES (Invitrogen, Carlsbad, Calif.)]. After washing, 30 μL assay buffer containing the fluorescent voltage-sensor probe CC2-DMPE (Invitrogen, Carlsbad, Calif.) at 20 μM and 0.01% pluronic F-127 (Invitrogen, Carlsbad, Calif.) was added to the cells. Cells were incubated for 40 minutes at room temperature in the dark. Following the incubation, the cells were washed and 30 μL assay buffer containing 2.5 μM DiSBAC2(3) substrate (Invitrogen, Carlsbad, Calif.) and 0.5 mM VABSC-1 (Invitrogen, Carlsbad, Calif.) was added to the cells. The cells were incubated for 60 minutes at room temperature in the dark. Fluorescence readings were made using a FLIPR®^TETRA (Molecular Devices, Sunnyvale Calif.) equipped with voltage-sensor probe optics. The depolarizing agent, veratridine (Sigma-Aldrich, St. Louis, Mo.), was made up at 3× concentrations in assay buffer containing 1 mg/mL scorpion venom (SVqq, from Leiurus quinquestriatus; Sigma-Aldrich, St. Louis, Mo.). The assay agonist/opener concentration was determined each day using a 6-point veratridine concentration curve in duplicate, tested with three concentrations of tetracaine (0.1, 0.06, 0.01 μM all in 0.03% dimethyl sulfoxide) and 0.03% dimethyl sulfoxide control in assay buffer. […] Test compounds in the daughter plate were diluted to (˜3×) solutions in assay buffer immediately before assaying. Using the FLIPR®^TETRA, 20 μL of the (3×) compound solutions were first added to the cells, then 20 μL of depolarizing solution (3×EC80 veratridine+SVqq) were added 3 minutes later to activate the channel. Changes in fluorescence were measured at wavelengths of 440-480 nm and 565-625 nm over the course of the experimental run. Membrane depolarization was expressed as a ratio of the maximum F440-480 nm/F565-625 nm reading above average baseline F440-480 nm/F565-625 nm reading. IC50 values were calculated from curve fits of the ratio data using a four-parameter logistic Hill equation (Accelrys Assay Explorer 3.3 Client, Accelrys, San Diego, Calif.) with percent inhibition plotted against compound concentration.
# Chain of human Nav1.7 (Q15858 whole entry): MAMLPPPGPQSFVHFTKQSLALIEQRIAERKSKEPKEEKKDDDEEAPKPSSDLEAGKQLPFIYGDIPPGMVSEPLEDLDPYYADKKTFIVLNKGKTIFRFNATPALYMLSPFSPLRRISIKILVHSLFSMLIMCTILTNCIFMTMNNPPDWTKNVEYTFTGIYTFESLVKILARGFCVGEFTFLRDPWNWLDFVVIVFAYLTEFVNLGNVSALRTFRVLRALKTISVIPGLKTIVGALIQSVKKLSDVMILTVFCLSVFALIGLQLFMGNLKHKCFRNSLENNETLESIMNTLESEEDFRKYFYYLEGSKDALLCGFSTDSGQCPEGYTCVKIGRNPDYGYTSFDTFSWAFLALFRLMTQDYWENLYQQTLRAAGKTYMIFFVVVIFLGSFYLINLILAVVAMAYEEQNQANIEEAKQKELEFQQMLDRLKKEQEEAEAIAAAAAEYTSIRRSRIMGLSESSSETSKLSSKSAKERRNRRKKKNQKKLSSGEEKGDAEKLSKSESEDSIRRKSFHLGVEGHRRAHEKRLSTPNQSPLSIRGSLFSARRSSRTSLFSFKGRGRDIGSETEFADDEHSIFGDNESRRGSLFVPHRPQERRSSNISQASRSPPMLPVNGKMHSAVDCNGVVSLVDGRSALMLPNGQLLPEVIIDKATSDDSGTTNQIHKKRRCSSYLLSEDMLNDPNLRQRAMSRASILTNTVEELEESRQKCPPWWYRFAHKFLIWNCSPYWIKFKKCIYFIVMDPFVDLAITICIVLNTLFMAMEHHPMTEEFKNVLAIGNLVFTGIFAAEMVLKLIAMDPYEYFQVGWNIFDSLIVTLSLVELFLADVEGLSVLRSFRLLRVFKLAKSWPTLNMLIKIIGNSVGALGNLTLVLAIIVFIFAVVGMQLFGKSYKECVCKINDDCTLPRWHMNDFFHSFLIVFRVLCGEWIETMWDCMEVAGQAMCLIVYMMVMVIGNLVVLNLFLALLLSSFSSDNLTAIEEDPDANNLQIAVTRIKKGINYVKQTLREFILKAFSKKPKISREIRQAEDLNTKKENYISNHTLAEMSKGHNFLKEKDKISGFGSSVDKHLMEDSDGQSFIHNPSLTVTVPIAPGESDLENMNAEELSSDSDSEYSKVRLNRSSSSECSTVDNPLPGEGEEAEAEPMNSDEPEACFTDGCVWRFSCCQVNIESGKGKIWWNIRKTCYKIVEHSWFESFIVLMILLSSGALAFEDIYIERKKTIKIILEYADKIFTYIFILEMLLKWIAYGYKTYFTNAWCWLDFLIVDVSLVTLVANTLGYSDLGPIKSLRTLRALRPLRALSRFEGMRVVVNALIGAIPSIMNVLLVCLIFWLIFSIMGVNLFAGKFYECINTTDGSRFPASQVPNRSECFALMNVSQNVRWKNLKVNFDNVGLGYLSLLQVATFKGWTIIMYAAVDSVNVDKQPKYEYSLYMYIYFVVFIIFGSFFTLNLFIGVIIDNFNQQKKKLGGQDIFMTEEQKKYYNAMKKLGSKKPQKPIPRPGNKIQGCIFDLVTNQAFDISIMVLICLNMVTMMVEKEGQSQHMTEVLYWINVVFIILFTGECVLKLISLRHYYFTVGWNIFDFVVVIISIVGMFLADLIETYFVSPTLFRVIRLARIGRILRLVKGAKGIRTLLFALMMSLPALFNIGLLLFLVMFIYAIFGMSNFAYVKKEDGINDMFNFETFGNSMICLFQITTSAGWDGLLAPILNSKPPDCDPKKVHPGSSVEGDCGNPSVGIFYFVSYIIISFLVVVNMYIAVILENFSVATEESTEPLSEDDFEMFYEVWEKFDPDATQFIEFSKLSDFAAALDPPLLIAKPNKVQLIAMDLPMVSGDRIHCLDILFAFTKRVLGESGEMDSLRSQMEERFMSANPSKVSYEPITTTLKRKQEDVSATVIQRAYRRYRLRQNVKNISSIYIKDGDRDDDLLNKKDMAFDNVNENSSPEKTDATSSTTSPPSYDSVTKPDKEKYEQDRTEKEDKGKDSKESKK
Compound,pIC50 (human Nav1.7),pIC50 (human Nav1.8)
"O=C(CN1CCN(c2cccc3c2cnn3-c2ccccc2F)C1=O)NC1CCCCC1 [Example 324, N-cyclohexyl-2-{3-[1-(2-fluorophenyl)-1H-indazol-4-yl]-2-oxoimidazolidin-1-yl}acetamide]",5.85,6.28
"O=C(CN1CCN(c2cccc3c2cnn3C2CCCCC2)C1=O)N1CC[C@H](F)C1 [Example 294, 1-(1-cyclohexyl-1H-indazol-4-yl)-3-{2-[(3S)-3-fluoropyrrolidin-1-yl]-2-oxoethyl}imidazolidin-2-one]",5.14,4.74
"O=C(CCN1CCN(c2cccc3c2cnn3-c2ccccc2F)C1=O)N1CCC[C@@H](F)C1 [Example 317, 1-[1-(2-fluorophenyl)-1H-indazol-4-yl]-3-{3-[(3R)-3-fluoropiperidin-1-yl]-3-oxopropyl}imidazolidin-2-one]",5.61,5.89
"O=C1N(c2cccc3c2cnn3-c2ccccc2F)CCN1C1CN(S(=O)(=O)CC2CC2)C1 [Example 283, 1-{1-[(cyclopropylmethyl)sulfonyl]azetidin-3-yl}-3-[1-(2-fluorophenyl)-1H-indazol-4-yl]imidazolidin-2-one]",5.59,5.66
"CC1CN(C(=O)CN2CCN(c3cccc4c3cnn4-c3ccccc3F)C2=O)C1 [Example 352, 1-[1-(2-fluorophenyl)-1H-indazol-4-yl]-3-[2-(3-methylazetidin-1-yl)-2-oxoethyl]imidazolidin-2-one]",5.82,5.59
"O=C(CN1CCN(c2cccc3c2cnn3-c2ccccc2F)C1=O)N[C@H]1CCC[C@@H]1OCc1ccccc1 [Example 334, N-[(1S,2S)-2-(benzyloxy)cyclopentyl]-2-{3-[1-(2-fluorophenyl)-1H-indazol-4-yl]-2-oxoimidazolidin-1-yl}acetamide]",5.71,6.18
"CCNC(=O)CN1CCN(c2cccc3c2cnn3-c2ccccc2F)C1=O [Example 315, N-ethyl-2-{3-[1-(2-fluorophenyl)-1H-indazol-4-yl]-2-oxoimidazolidin-1-yl}acetamide]",5.53,5.45
"O=C(CN1CCN(c2cccc3c2cnn3-c2cccc(OC(F)(F)F)c2)C1=O)N1CC[C@H](F)C1 [Example 88, 1-{2-[(3S)-3-fluoropyrrolidin-1-yl]-2-oxoethyl}-3-{1-[3-(trifluoromethoxy)phenyl]-1H-indazol-4-yl}imidazolidin-2-one]",6.45,5.86
"O=C(CN1CCN(c2cccc3c2cnn3-c2ccccc2F)C1=O)NCC(F)(F)F [Example 304, 2-{3-[1-(2-fluorophenyl)-1H-indazol-4-yl]-2-oxoimidazolidin-1-yl}-N-(2,2,2-trifluoroethyl)acetamide]",5.32,5.85
"O=C(CCN1CCN(c2cccc3c2cnn3-c2ccccc2F)C1=O)N1CCC[C@H](F)C1 [Example 318, 1-[1-(2-fluorophenyl)-1H-indazol-4-yl]-3-{3-[(3S)-3-fluoropiperidin-1-yl]-3-oxopropyl}imidazolidin-2-one]",5.50,5.46
"CO[C@H]1CCCC[C@@H]1N1CCN(c2cccc3c2cnn3-c2ccccc2F)C1=O [Example 279, 1-[1-(2-fluorophenyl)-1H-indazol-4-yl]-3-[(1S,2S)-2-methoxycyclohexyl]imidazolidin-2-one]",5.73,5.25
"O=C(CN1CCN(c2cccc3c2cnn3-c2cc(Cl)cc(Cl)c2)C1=O)N1CC[C@H](F)C1 [Example 348, 1-[1-(3,5-dichlorophenyl)-1H-indazol-4-yl]-3-{2-[(3S)-3-fluoropyrrolidin-1-yl]-2-oxoethyl}imidazolidin-2-one]",4.87,5.49
"O=C(CN1CCN(c2cccc3c2cnn3-c2ccccc2F)C1=O)NC1CCCC(F)(F)C1 (centres unmarked) [Example 340, N-(3,3-difluorocyclohexyl)-2-{3-[1-(2-fluorophenyl)-1H-indazol-4-yl]-2-oxoimidazolidin-1-yl}acetamide]",5.58,6.20
"O=C(CN1CCN(c2cccc3c2cnn3-c2ccccc2F)C1=O)NC1(C(F)(F)F)CCC1 [Example 353, 2-{3-[1-(2-fluorophenyl)-1H-indazol-4-yl]-2-oxoimidazolidin-1-yl}-N-[1-(trifluoromethyl)cyclobutyl]acetamide]",5.48,5.77
"O=C(CN1CCN(c2cccc3c2cnn3-c2ccccc2F)C1=O)NC1CC(=NO)C1 (centres unmarked) [Example 354, 2-{3-[1-(2-fluorophenyl)-1H-indazol-4-yl]-2-oxoimidazolidin-1-yl}-N-[3-(hydroxyimino)cyclobutyl]acetamide]",5.19,4.78
"COC1CN(C(=O)CN2CCN(c3cccc4c3cnn4-c3ccccc3F)C2=O)C1 [Example 319, 1-[1-(2-fluorophenyl)-1H-indazol-4-yl]-3-[2-(3-methoxyazetidin-1-yl)-2-oxoethyl]imidazolidin-2-one]",5.50,5.52
"O=C(CN1CCN(c2cccc3c2cnn3-c2ccccc2F)C1=O)N1CCC(F)(F)CC1 [Example 297, 1-[2-(4,4-difluoropiperidin-1-yl)-2-oxoethyl]-3-[1-(2-fluorophenyl)-1H-indazol-4-yl]imidazolidin-2-one]",5.52,6.06
"O=C1CCCN(C(=O)CN2CCN(c3cccc4c3cnn4-c3ccccc3F)C2=O)CC1 [Example 313, 1-({3-[1-(2-fluorophenyl)-1H-indazol-4-yl]-2-oxoimidazolidin-1-yl}acetyl)azepan-4-one]",5.57,5.49
"O=C(CCN1CCN(c2cccc3c2cnn3-c2ccccc2F)C1=O)N1CC[C@H](F)C1 [Example 292, 1-[1-(2-fluorophenyl)-1H-indazol-4-yl]-3-{3-[(3S)-3-fluoropyrrolidin-1-yl]-3-oxopropyl}imidazolidin-2-one]",5.53,5.35
"O=C1N(c2cccc3c2cnn3-c2ccccc2F)CCN1C1CN(S(=O)(=O)CC(F)(F)F)C1 [Example 284, 1-[1-(2-fluorophenyl)-1H-indazol-4-yl]-3-{1-[(2,2,2-trifluoroethyl)sulfonyl]azetidin-3-yl}imidazolidin-2-one]",5.61,5.92
"O=C(CN1CCN(c2cccc3c2cnn3-c2ccccc2F)C1=O)N1CCCC(F)(F)C1 [Example 296, 1-[2-(3,3-difluoropiperidin-1-yl)-2-oxoethyl]-3-[1-(2-fluorophenyl)-1H-indazol-4-yl]imidazolidin-2-one]",5.50,5.88
"O=C1CCN(C(=O)CN2CCN(c3cccc4c3cnn4-c3ccccc3F)C2=O)C1 [Example 302, 1-[1-(2-fluorophenyl)-1H-indazol-4-yl]-3-[2-oxo-2-(3-oxopyrrolidin-1-yl)ethyl]imidazolidin-2-one]",4.70,5.14
"CC(C)(C)CCn1ncc2c(N3CCN(CC(=O)N4CCCC4)C3=O)cccc21 [Example 305, 1-[1-(3,3-dimethylbutyl)-1H-indazol-4-yl]-3-[2-oxo-2-(pyrrolidin-1-yl)ethyl]imidazolidin-2-one]",5.44,5.48
"O=C(/C=C\N1CCN(c2cccc3c2cnn3-c2ccccc2F)C1=O)N1CC[C@H](F)C1 [Example 314, 1-[1-(2-fluorophenyl)-1H-indazol-4-yl]-3-{(1Z)-3-[(3S)-3-fluoropyrrolidin-1-yl]-3-oxoprop-1-en-1-yl}imidazolidin-2-one]",5.49,6.04
"O=C1N(c2cccc3c2cnn3-c2ccccc2F)CCN1C1CN(S(=O)(=O)CC2CC2(Cl)Cl)C1 (centres unmarked) [Example 282, 1-(1-{[(2,2-dichlorocyclopropyl)methyl]sulfonyl}azetidin-3-yl)-3-[1-(2-fluorophenyl)-1H-indazol-4-yl]imidazolidin-2-one]",5.60,5.85
